Measurements as given in patent publication US6949585B2, “Cyclooctanone derivatives and cyclodecanone derivative, and use thereof” (Eisai Co., Ltd., priority 2001, dated 2005).

Experiments:
Type in all cases: cell-based
TNF-α production = TNF-α production by LPS-stimulated human peripheral blood monocytes (ELISA); conditions: LPS 10 ng/ml, 18 h, compound 0.1-100 μM
Procedure: (§1) TNF-α and IL-6 production inhibitory activity of the compound of the present invention was evaluated by determining the amounts of TNF-α and IL-6 produced by the human peripheral blood monocyte stimulated with lipopolysaccharide(LPS). Briefly, human peripheral blood monocyte fraction was isolated from the peripheral venous blood from healthy male volunteers by density gradient centrifugation with Ficoll-Paque (Pharmacia). The monocytes were suspended in RPMI 1640 medium (Gibco BRL) containing 10% FCS and seeded at 5×10^5 cell/160 μl in a 96-well plate.
(§2) The present compound was added to the monocytes cultured and the mixture was left at 37° C. for thirty minutes. Then the monocytes were stimulated by adding LPS (Sigma) at a final concentration of 10 ng/ml and left 37° C. for eighteen hours. For control, the cells were used wherein LPS was added to the cell at a final concentration of 10 ng/ml without the present compound.
(§3) The amount of each of TNF-α and IL-6, which were released in the culture supernatant, was measured using an ELISA kit (R & D). The inhibitory rate (%) of TNF-α and IL-6 production as compared to control was calculated using the following formula from the amounts of TNF-α and […] thus measured: [formula]
(§4) In addition, the concentration of the present compound to inhibit 50% (IC50) was calculated by plotting the inhibitory rate (%) of IL-6 and TNF-α production obtained by varying a final concentration of the present compound of from 0.1 μM to 100 μM.

IL-2 production = IL-2 production by PHA-stimulated human peripheral lymphocytes (ELISA); conditions: PHA 10 μl/ml, 48 h, compound 0.1-100 μM
Procedure: Human peripheral lymphocytes were stimulated with mitogen (PHA) to induce IL-2 production. The amount of IL-2 produced was measured to evaluate the inhibitory effect of the present compound. Briefly, human peripheral blood monocyte fraction was isolated in a manner similar to Test Example 1.
The monocytes were suspended in RPM 1640 medium (Gibco BRL) containing 10% FCS and seeded in a petri dish and left at 37° C. for an hour. Then, the cells (lymphocytes) which were not attached to the wall of the petri desh were isolated by centrifugation. The lymphocytes collected were suspended in the medium and seeded at 5×10^5 cell/160 μl in a 96-well plate.
The present compound was added to the lymphocytes cultured and the mixture was left at 37° C. for thirty minutes. Then, the cells were stimulated by adding PHA (Difco) at a final concentration of 10 μl/ml and left at 37° C. for forty eight hours. For control, the cells were used wherein PHA was added to the cell at a final concentration of 10 μl/ml without the present compound.
The amount of IL-2 which was released in the culture supernatant was measured using an ELISA kit (BioSource International). The inhibitory rate (%) of IL-2 production as compared to control was calculated using the following formula from IL-2 amounts thus measured: [formula]
In addition, the concentration of the present compound to inhibit 50% (IC50) was calculated by plotting the inhibitory rate (%) of IL-2 production obtained by varying a final concentration of the present compound of from 0.1 μM to 100 μM.

IL-6 production = IL-6 production by LPS-stimulated human peripheral blood monocytes (ELISA); conditions: Monocyte, LPS 10 ng/ml, 18 h, compound 0.1-100 μM
Procedure: as §1, §2, §3, §4

Structure (SMILES) | IC50 (TNF-α production; Monocyte) [µM] | IC50 (IL-2 production; Lymphocyte) [µM] | IC50 (TNF-α production) [µM] | IC50 (IL-2 production) [µM] | IC50 (IL-6 production) [µM]
O=C1C=CCC(CCc2ccccc2)C[C@@H](O)[C@H]1O (mixture of isomers) [Example 84 (b), (7RS,8RS)-7,8-dihydroxy-5-phenethyl-2-cycloocten-1-one] | 8.8 | 3.6 | – | – | –
O=C1C=CCC(CCc2ccccc2O)C[C@@H](O)[C@H]1O (mixture of isomers) [Example 85 (a), (7RS,8RS)-7,8-dihydroxy-5-[2-(2-hydroxyphenyl)ethyl]-2-cycloocten-1-one] | 2.2 | 64.9 | – | – | –
O=C1/C=C\CCC(Cc2ccccc2)CC[C@@H](O)[C@H]1O (mixture of isomers) [Example 87, Z-(9RS,10RS)-6-benzyl-9,10-dihydroxy-2-cyclodecen-1-one] | 12.4 | 3 | – | – | –
O=C(OC1CC=CC(=O)[C@H](O)[C@H](O)C1)c1ccccc1O (mixture of isomers) [Example 90 (a), (6RS,7RS)-6,7-dihydroxy-5-oxo-3-cyclooctenyl 2-hydroxybenzoate] | 3.4 | – | – | – | –
O=C(OC1CC/C=C\C(=O)[C@H](O)[C@H](O)CC1)c1ccccc1O (mixture of isomers) [Example 92, Z-(7RS,8RS)-7,8-dihydroxy-6-oxo-4-cyclodecenyl (2-hydroxy)benzoate] | 1.7 | 1.2 | – | – | –
COc1ccc(C(=O)OC2CC/C=C\C(=O)[C@H](O)[C@H](O)CC2)c(O)c1 (mixture of isomers) [Example 93, Z-(7RS,8RS)-7,8-dihydroxy-6-oxo-4-cyclodecenyl (2-hydroxy-4-methoxy)benzoate] | – | – | 1.8 | 2 | –
O=C1C=CCC(Cc2ccccc2)CCC1 (centres unmarked) [Example 4, 5-Benzyl-2-cycloocten-1-one] | 13.6 | – | – | – | 23.3
O=C1C=CCC(CCc2ccccc2)CCC1 (centres unmarked) [Example 5, 5-Phenethyl-2-cycloocten-1-one] | 13.7 | 1.7 | – | – | 21.6
O=C1C=CCC(CCc2cccc(O)c2)CCC1 (centres unmarked) [Example 18, 5-[2-(3-Hydroxyphenyl)ethyl]-2-cycloocten-1-one] | 5.9 | 2.1 | – | – | 6.8
O=C1/C=C\CCC(Cc2ccccc2)CCCC1 (centres unmarked) [Example 22 (a), Z-6-benzyl-2-cyclodecen-1-one] | 28.1 | 2.6 | – | – | –
COc1ccc(C(=O)OC2CC=CC(=O)CCC2)c(O)c1 (centres unmarked) [Example 47, 5-Oxo-3-cyclooctenyl (2-hydroxy-4-methoxy)benzoate] | – | – | 0.5 | 0.14 | –
